Results on one substance are retold here after patent US6797807B1, “Compounds and methods for cancer therapy” (Adherex Technologies, Inc., priority 1997, dated 2004).

For experiment [1], the system named is Adult rats. The experiment in a line: Miles assay for vascular permeability (Evans blue). It counts as in vivo. The following applies: rat, 100 μg/ml peptide subdermal, OD at 620 nm; compared with PBS and the N-acetyl/C-amide peptides; FIG. 6, FIG. 8. The procedure:
The ability of an agent to modulate cell adhesion may generally be evaluated in vivo by assessing the effect on vascular permeability utilizing the Miles assay (McClure et al., J. Pharmacological & Toxicological Methods 32:49-52, 1994). Briefly, a candidate modulating agent may be dissolved in phosphate buffered saline (PBS) at a concentration of 100 μg/ml. Adult rats may be given 100 μl subdermal injections of each peptide solution into their shaved backs, followed 15 minutes later by a single 250 μl injection of 1% Evans blue dissolved in PBS into their tail veins. The subdermal injection sites may be visually monitored for the appearance of blue dye. Once the dye appears (about 15 minutes after injection), each subdermal injection site may be excised, weighed, and placed in 1 ml dimethylformamide for 24 hours to extract the dye. The optical density of the dye extracts may then be determined at 620 nm. In general, the injection of 0.1 ml of modulating agent (at a concentration of 0.1 mg/ml) into the backs of rats causes an increase of dye accumulation at the injection sites of at least 50%, as compared to dye accumulation at sites into which PBS has been injected.
The ability of cyclic and linear peptides to increase vascular permeability was assessed utilizing the Miles assay (McClure et al., J. Pharmacological & Toxicological Meth. 32:49-521994). The peptides were dissolved in phosphate buffered saline (PBS) at a concentration of 100 μg/ml. Adult rats were given 100 μl subdermal injections of each peptide solution into their shaved backs, followed 15 minutes later by a single 250 μl injection of 1% Evans blue dissolved in PBS into their tail veins. The subdermal injection sites were visually monitored for the appearance of blue dye. Once the dye appeared (15 minutes after injection), each subdermal injection site was excised, weighed, and placed in 1 ml dimethylformamide for 24 hours to extract the dye. The optical density of the dye extracts was determined at 620 nm. […]

For experiment [2], the system named is Human neutrophils (polymorphonuclear leukocytes, PMN) on HUVEC monolayers. The experiment can be described thus: Neutrophil (PMN) transendothelial migration across HUVEC monolayers with fMLP. It is filed as cell-based. To be noted: 10^-7 M fMLP, vs control with fMLP, FIGS. 10-11. How it is done:
A further assay for evaluating modulating agent activity involves determining an effect of a candidate agent on neutrophil migration on endothelial cells. Within such assays, endothelial cells (e.g., HUVEC) may be harvested and cultured using standard techniques. Cells are grown to confluence on 8.0 μm pore cell culture inserts (Falcon, Franklin Lake, N.J.) essentially as described by Ohno et al., Inflammation 21(3):313-24, 1997. Radiolabeled human neutrophils (polymorphonuclear leukocytes, PMN) are added to the apical surface of HUVEC monolayers and allowed to migrate. Migration assays are generally performed in the presence of 10^−7 M N-formyl-methionyl-leucyl-phenylalanine (fMLP), a chemoattractant that causes the leukocytes to undergo diapedesis. PMN migration may be quantitated as follows: [formula]
Human umbilical vein endothelial cells (HUVEC) were harvested from umbilical cords by 0.2% collagenase treatment essentially as described by Yoshida et al., Am. […]
For neutrophil diapedesis experiments, HUVEC were grown to confluence on 8.0 μm pore cell culture inserts (Falcon, Franklin Lake, N.J.) essentially as described by Ohno et al., inflammation 21(3):313-24, 1997. […] The cells were then washed twice with cold phosphate-buffered saline (PBS), spun at 250 g for 8 minutes to remove unincorporated radioactivity and resuspended in PBS. […]
PMN migration was quantitated as follows: [formula]

For experiment [3], the system named is HUVEC. The experiment in a line: Immunofluorescence analysis of occludin in HUVEC. It is filed as cell-based, human. To be noted: 200 μg/mL peptide vs vehicle; FIG. 12B. The procedure:
For immunofluorescence analysis of occludin, HUVEC grown on glass coverslips were treated with vehicle (FIG. 12A) or 200 μg/mL peptide 76 (FIG. 12B). Cells were fixed with methanol and acetone and stained for occludin (Kevil et al., Microcirculation 5:197-210, 1998). Immunofluorescent staining was performed with anti-occludin polyclonal antibody (Zymed, San Francisco, Calif. used at a concentration of 4 μg/ml) and Cy3-conjugated goat anti-rabbit secondary Ab (Jackson Labs, Westgrove, Pa., used at a 1:250 dilution), and analyzed by fluorescence microscope. […] The photographs shown are representative of at least 20 different fields observed in each experiment and of three independent experiments. Bar=25 μm.

As to “H-CLYHYC-OH (also: cyclic, kind not given here) [Peptide 5]”, the “optical densities of dimethylformamide dye extracts from excised injection sites” value in experiment [1] was “more dye was extracted”. Besides, in experiment [2], the “fMLP-stimulated neutrophil transendothelial migration” value was “increase fMLP-stimulated transendothelial migration”. Moreover, in experiment [3], the “occludin staining and intercellular gaps in HUVEC” value was “gaps between adjacent endothelial cells and the lack of junctional proteins at these gaps”.
